Results taken from PubChem BioAssay AID1963828 (Molecular Pharmacology Branch, DTP, NCI, 2024).

Tested on: 991263-137-R1-J2-PDC complex spheroid viability
Assay: Anticancer human tumor 991263-137-R1-J2-PDC patient-derived colon adenocarcinoma cell line growth inhibition [POLQ]
Details: for IC50: curve of first compound; for viability, T/C: stronger effect = lower value
Procedure: Multicellular complex tumor spheroid response to Polymerase (POL) inhibitors (novobiocin, ART-558, RP6685) in combination with a variety of drugs and investigational agents in selected tumor cell lines
The POL inhibitors (novobiocin, ART-558, and RP6685) were evaluated both individually and in combination with standard of care and investigational anticancer small molecules within a complex spheroid model of solid tumors. . Complex spheroids include a stromal component modeled by human endothelial cells (HUVEC) and fibroblasts modeled by human mesenchymal stem cells (MSCs). The concentration ranges selected for each drug and investigational agent were based upon clinically achievable concentrations if the clinical Cmax of the agent was known.
Compounds. The drugs and investigational agents: novobiocin (NSC847541), ART-558 (NSC835418), RP-6685 (NSC848927), peposertib (NSC802822), ceralasertib (NSC780249), elimusertib (NSC800525), camonsertib (NSC841442), AZD-1390 (NSC803789), olaparib (NSC753686), talazoparib (NSC767125), rucaparib (NSC756644), sotorasib (NSC818433), MRTX-1133 (NSC836407), SN-38 (NSC673596), topotecan (NSC609699), epotoside (NSC141540), doxorubicin (NSC123127), gemcitabine (NSC613327), 5-fluorouracil (NSC19893), paclitaxel (NSC125973), vemurafenib (NSC761431), MSA-2 (NSC828583), SN-011 (NSC837082), adavosertib (NSC754352), prexasertib (NSC758257), carboplatin (NSC241240) and oxaliplatin (NSC266046), were obtained from the National Cancer Institute (NCI) Developmental Therapeutics Program Chemical Repository (21). The FDA-approved anticancer drug set is available from the Developmental Therapeutics Program at https://dtp.cancer.gov/organization/dscb/obtaining/. […] The stock solutions were prepared in dimethyl sulfoxide (DMSO, Sigma-Aldrich, St. Louis, MO, cat. D2650), except for the platinum compounds which were prepared in saline (Quality Biological, Gaithersburg, MD, cat. 114-055-101), at 800-fold the tested concentration and stored at -70 degrees C prior to their use. All drugs and investigational agents were tested over a range starting from a high concentration at or near the clinical Cmax and decreasing in half-log increments. If the clinical Cmax for an agent had not been determined, the highest concentration tested was 10 microM, except for SN-38, which was tested at a high concentration of 1 microM.
Cell Culture. All cells were maintained in an incubator at 37 degrees C and 5% CO2 with 95% humidity. The PDC lines were cultured according to standard operating procedures established by the NCI PDMR (https://pdmr.cancer.gov). Table 3 of the manuscript, lists the cell lines along with the number of the three cell types plated to form the mct-spheroids and media for tumor cell growth. After thawing, all PDC lines, except 997537-175-T-J1-PDC and 415267-285-R-J2-PDC, were cultured in Matrigel-coated flasks prepared with a working solution of 1X Ham's F-12 nutrient mix, without supplementation (Thermo Fisher Scientific, cat. 11765054), 100 U/mL penicillin-streptomycin (Thermo Fisher Scientific, cat. 15140122), and 2.5% Matrigel (Corning Inc., Corning, NY, cat. 354248) for the first three passages. The two PDC lines 997537-175-T-J1-PDC and 415267-285-R-J2-PDC were cultured on uncoated flasks. The 857933-349-R-J2-PDC line was cultured in 6C/Colon 1B media containing advanced DMEM/F-12 (Thermo Fisher Scientific, cat. 12634028), 10 mM HEPES (Thermo Fisher Scientific, cat. 15630080), 1X GlutaMAX supplement (Thermo Fisher Scientific, cat. 35050061), 0.1 mg/mL primocin (InvivoGen, San Diego, CA, cat. ant-pm-2), 10% defined fetal bovine serum, heat inactivated (HyClone Laboratories Inc., Logan, UT, cat. SH30070.03HI), 50% L-WRN conditioned media (ATCC, cat. CRL-3276), 1.25 mM N-Acetyl-L-cysteine (Sigma-Aldrich, cat. A9165), 10 mM nicotinamide (Sigma-Aldrich, cat. N0636), 1X B-27 supplement (Thermo Fisher Scientific, cat. 17504044), 1X N-2 supplement (Thermo Fisher Scientific, cat. […]
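Further: spheroids exposed to compounds for 7 days before readout.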
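Wherever viability, T/C is given: 100% = DMSO vehicle control viability.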

COc1cc2cc(C(=O)CCC(=O)O)sc2cc1OC + COC1C(OC(N)=O)C(O)C(Oc2ccc3c(O)c(NC(=O)c4ccc(O)c(CC=C(C)C)c4)c(=O)oc3c2C)OC1(C)C
IC50 (second compound 0.0316 µM): > 10 µM
IC50 (second compound 0.1 µM): > 10 µM
IC50 (second compound 0.316 µM): > 10 µM
IC50 (second compound 1 µM): > 10 µM
IC50 (second compound 3.16 µM): > 10 µM
IC50 (second compound 10 µM): > 10 µM
viability, T/C (second compound 0.0316 µM, first compound 0.0316 µM): 97%
viability, T/C (second compound 0.0316 µM, first compound 0.1 µM): 109%
viability, T/C (second compound 0.0316 µM, first compound 0.316 µM): 103%
viability, T/C (second compound 0.0316 µM, first compound 1 µM): 83.6%
viability, T/C (second compound 0.0316 µM, first compound 3.16 µM): 89.7%
viability, T/C (second compound 0.0316 µM, first compound 10 µM): 95.1%
viability, T/C (second compound 0.1 µM, first compound 0.0316 µM): 99.9%
viability, T/C (second compound 0.1 µM, first compound 0.1 µM): 105%
viability, T/C (second compound 0.1 µM, first compound 0.316 µM): 99.7%
viability, T/C (second compound 0.1 µM, first compound 1 µM): 90.4%
viability, T/C (second compound 0.1 µM, first compound 3.16 µM): 116%
viability, T/C (second compound 0.1 µM, first compound 10 µM): 83%
viability, T/C (second compound 0.316 µM, first compound 0.0316 µM): 119%
viability, T/C (second compound 0.316 µM, first compound 0.1 µM): 130%
viability, T/C (second compound 0.316 µM, first compound 0.316 µM): 112%
viability, T/C (second compound 0.316 µM, first compound 1 µM): 110%
viability, T/C (second compound 0.316 µM, first compound 3.16 µM): 94%
viability, T/C (second compound 0.316 µM, first compound 10 µM): 96.8%
viability, T/C (second compound 1 µM, first compound 0.0316 µM): 108%
viability, T/C (second compound 1 µM, first compound 0.1 µM): 107%
viability, T/C (second compound 1 µM, first compound 0.316 µM): 115%
viability, T/C (second compound 1 µM, first compound 1 µM): 110%
viability, T/C (second compound 1 µM, first compound 3.16 µM): 91.9%
viability, T/C (second compound 1 µM, first compound 10 µM): 90.2%
viability, T/C (second compound 3.16 µM, first compound 0.0316 µM): 114%
viability, T/C (second compound 3.16 µM, first compound 0.1 µM): 97.9%
viability, T/C (second compound 3.16 µM, first compound 0.316 µM): 90.2%
viability, T/C (second compound 3.16 µM, first compound 1 µM): 118%
viability, T/C (second compound 3.16 µM, first compound 3.16 µM): 121%
viability, T/C (second compound 3.16 µM, first compound 10 µM): 80.5%
viability, T/C (second compound 10 µM, first compound 0.0316 µM): 117%
viability, T/C (second compound 10 µM, first compound 0.1 µM): 112%
viability, T/C (second compound 10 µM, first compound 0.316 µM): 109%
viability, T/C (second compound 10 µM, first compound 1 µM): 97.7%
viability, T/C (second compound 10 µM, first compound 3.16 µM): 126%
viability, T/C (second compound 10 µM, first compound 10 µM): 88.7%
